{"source": "paper PMC10307885", "about": "“A Phase 1/2 trial of SRA737 (a Chk1 inhibitor) administered orally in patients with advanced cancer” (British Journal of Cancer, 2023)", "key": {"[1]": {"assay": "Plasma SRA737 pharmacokinetics (LC-MS assay, non-compartmental methods)", "type": "in vivo, human", "conditions": "for Cmax / AUC(0-t) / Tmax / Vd/F / half-life: human, oral; for AUC(0-t): read-out: AUC0-24; for Tmax / Vd/F / half-life: plasma", "protocol": "Serial sampling of blood for PK assessment was conducted before and after dosing with single-agent SRA737 (9 time points over 48 h) on Day −7 to Day −4 and on Cycle 1 Day 22; in addition, samples were drawn pre-dose on Days 1, 8, and 15 of Cycle 1, and pre-dose on Day 1 of each subsequent cycle. Plasma SRA737 concentrations were quantified using a fully validated liquid chromatography-mass spectrometry assay with a lower limit of quantitation of 5 ng/ml as previously described.\n(§1) Safety and response variables were summarized using descriptive statistics and PK parameters were determined using non-compartmental methods. A concentration-effect model was used to evaluate the relationship between plasma SRA737 concentrations and the mean change from baseline in QT interval corrected for heart rate using Fridericia’s formula (QTcF) in time-matched ECG measurements and PK samples collected on Day −7 to Day −4 and during Cycle 1."}, "[2]": {"system": "patients with advanced solid tumours", "assay": "Cardiac safety: ECG (QTcF), troponin, echocardiogram", "type": "in vivo, human", "protocol": "Cardiac assessments included centrally-assessed serial ECGs in Cycle 1 used for evaluation of QTc. In addition, locally-read ECGs for safety assessment were also available for central assessment where clinically indicated. Troponin T or I assessments and echocardiogram were locally assessed.\nas §1"}, "Chk1": {"system": "Chk1", "parameters": "method as in printed", "conditions": "previously shown in preclinical experiments; ref not given; cited from earlier work"}, "[3]": {"system": "advanced solid tumours (CRC, HGSOC, NSCLC, mCRPC, HNSCC)", "assay": "Tumour response by RECIST 1.1", "type": "in vivo, human", "protocol": "Radiologic tumour assessments were carried out every 8 weeks, and clinical evaluations and serum tumour markers assessed every 4 weeks. Tumours were assessed using the Response Evaluation Criteria in Solid Tumors version 1.1 (RECIST 1.1). Clinical response data were summarized in cohorts defined by tumour type (CRC, HGSOC, NSCLC, mCRPC, HNSCC, or other disease). The Safety Evaluable population included all patients who received at least one dose of SRA737. The Response Evaluable population included patients who had measurable disease at baseline, received at least 75% of planned SRA737 doses in Cycle 1 and had at least one post-baseline disease assessment or discontinued treatment due to disease progression, adverse event, or death."}, "[4]": {"assay": "Preliminary in vitro solubility studies of SRA737 citrate drug product", "type": "physicochemical", "conditions": "over the physiological range"}, "[5]": {"conditions": "600 mg, repeat doses, N 7, plasma, mean ± standard deviation"}, "[6]": {"conditions": "800 mg, repeat doses, N 31, plasma, mean ± standard deviation"}, "[7]": {"conditions": "1000 mg, repeat doses, N 16, plasma, mean ± standard deviation"}, "[8]": {"conditions": "single SRA737 dose, at or above the dose level of 300 mg QD"}}, "note": "Several values for one entry are separate records, joined by “and”; a condition that tells them apart may be missing. Equal entries are not always repeated. Entries after “also recorded” stand apart in the source; their conditions may differ. Where two headings read alike, the source gives them in different places."}
{"smiles": "N#Cc1cnc(Nc2cc(NC[C@H]3CNCCO3)c(C(F)(F)F)cn2)cn1", "note": "[SRA737, (R)-5-((4-((morpholin-2-ylmethyl)amino)-5-(trifluoromethyl)pyridin-2-yl)amino)pyr azine-2-carbonitrile]", "values": [{"measurement": "Systemic exposure (Cmax and AUC) between dose levels", "setting": "[1]; 600 mg vs 1000 mg dose levels", "result": "tended to be comparable"}, {"measurement": "CL/F", "setting": "[1]; [5]", "result": "26.9 ± 2.85", "unit": "L/h"}, {"measurement": "Cmin", "setting": "[1]; [5]", "result": "230 ± 123", "unit": "ng/mL"}, {"measurement": "Exposure relative to minimum effective concentration extrapolated from preclinical models", "setting": "[1]; 800 mg QD and 1000 mg QD", "result": "exceeded the minimum effective concentration"}, {"measurement": "Cmin", "setting": "[1]; 800 mg QD, repeat doses, N 31, plasma, mean ± standard deviation", "result": "312 ng/mL and 312 ± 166 ng/mL"}, {"measurement": "CL/F", "setting": "[1]; [6]", "result": "38.0 ± 22.2", "unit": "L/h"}, {"measurement": "CL/F", "setting": "[1]; [7]", "result": "39.7 ± 9.20", "unit": "L/h"}, {"measurement": "Cmin", "setting": "[1]; [7]", "result": "499 ± 185", "unit": "ng/mL"}, {"measurement": "Cmax", "setting": "[1]; [5]", "result": "2470 ± 328", "unit": "ng/mL"}, {"measurement": "AUC(0-t)", "setting": "[1]; [5]", "result": "22100 ± 2450", "unit": "ng·h/mL"}, {"measurement": "Cmax", "setting": "[1]; [6]", "result": "2480 ± 679", "unit": "ng/mL"}, {"measurement": "AUC(0-t)", "setting": "[1]; [6]", "result": "24700 ± 8580", "unit": "ng·h/mL"}, {"measurement": "Cmax", "setting": "[1]; [7]", "result": "2490 ± 666", "unit": "ng/mL"}, {"measurement": "AUC(0-t)", "setting": "[1]; [7]", "result": "27200 ± 9210", "unit": "ng·h/mL"}, {"measurement": "Tmax", "setting": "[1]; 600 mg, repeat doses on C1D8, C1D22, C2D8, C2D15 or C2D22, N 7, plasma, median (minimum-maximum), read-out: tmax", "result": 2, "unit": "h"}, {"measurement": "Vd/F", "setting": "[1]; 600 mg, repeat doses, N 7, plasma, mean ± standard deviation, read-out: Vd/F", "result": "320 ± 61.1", "unit": "L"}, {"measurement": "half-life", "setting": "[1]; 600 mg, repeat doses, N 7, plasma, mean ± standard deviation, read-out: t½ (converted)", "result": "8.22 ± 1.27", "unit": "h"}, {"measurement": "Tmax", "setting": "[1]; 800 mg, repeat doses on C1D8, C1D22, C2D8, C2D15 or C2D22, N 31, plasma, median (minimum-maximum), read-out: tmax", "result": 2, "unit": "h"}, {"measurement": "Vd/F", "setting": "[1]; 800 mg, repeat doses, N 31, plasma, mean ± standard deviation, read-out: Vd/F", "result": "454 ± 299", "unit": "L"}, {"measurement": "half-life", "setting": "[1]; 800 mg, repeat doses, N 31, plasma, mean ± standard deviation, read-out: t½ (converted)", "result": "8.25 ± 1.17", "unit": "h"}, {"measurement": "Tmax", "setting": "[1]; 1000 mg, repeat doses on C1D8, C1D22, C2D8, C2D15 or C2D22, N 16, plasma, median (minimum-maximum), read-out: tmax", "result": 2, "unit": "h"}, {"measurement": "Vd/F", "setting": "[1]; 1000 mg, repeat doses, N 16, plasma, mean ± standard deviation, read-out: Vd/F", "result": "477 ± 87", "unit": "L"}, {"measurement": "half-life", "setting": "[1]; 1000 mg, repeat doses, N 16, plasma, mean ± standard deviation, read-out: t½ (converted)", "result": "8.45 ± 1.06", "unit": "h"}, {"measurement": "half-life", "setting": "[1]; 1000 mg, repeated doses of 600, 800 and 1000 mg QD, read-out: Estimated elimination half-life (t½) values, range", "result": "6.23 to 10.4", "unit": "h"}, {"measurement": "Tmax", "setting": "[1]; 1000 mg, repeated doses of 600, 800 and 1000 mg QD, read-out: Tmax, generally occurred", "result": "2 to 4", "unit": "h"}, {"measurement": "Tmax", "setting": "[1]; 1000 mg, repeated doses of 600, 800 and 1000 mg QD, read-out: Tmax, ranged", "result": "1 to 6", "unit": "h"}, {"measurement": "Vd/F", "setting": "[1]; 1000 mg, repeated doses of 600, 800 and 1000 mg QD, read-out: individual apparent volume of distribution (Vd/F) values, range", "result": "215 to 1590", "unit": "L"}, {"measurement": "time plasma concentration of 100 nM (37.9 ng/mL) was achieved, all patients", "setting": "[1]; [8]", "result": "at least 24 h"}, {"measurement": "time plasma concentration of 100 nM (37.9 ng/mL) was achieved, majority of patients", "setting": "[1]; [8]", "result": "up to 48 h"}, {"measurement": "largest LS mean ΔQTcF", "setting": "[2]; 800 mg QD, 2 h post dose on Cycle 1 Day 22, 90% confidence interval 11.53 to 22.13", "result": 16.8, "unit": "ms"}, {"measurement": "cases of acute coronary syndrome (cardiac SAE)", "setting": "[2]; 800 mg SRA737", "result": 1, "unit": "case"}, {"measurement": "cases of asymptomatic myocardial infarction (cardiac SAE)", "setting": "[2]; 800 mg SRA737", "result": 1, "unit": "case"}, {"measurement": "cases of asymptomatic QT prolongation (cardiac SAE)", "setting": "[2]; 1000 mg SRA737", "result": 1, "unit": "case"}, {"measurement": "cases of cardiomyopathy (cardiac SAE)", "setting": "[2]; 1000 mg SRA737", "result": 1, "unit": "case"}, {"measurement": "cardiac serious adverse events evaluated to be possibly related to SRA737", "setting": "[2]; all doses", "result": "Four"}, {"measurement": "subjects with treatment-emergent QTcF values >500 ms or ΔQTcF of >60 ms", "setting": "[2]; central ECG monitoring", "result": "no individual subjects"}, {"measurement": "patients with > 10% absolute drop from baseline resulting in abnormal left ventricular ejection fraction", "setting": "[2]; echocardiogram data, 83 evaluable patients, other than cardiomyopathy and myocardial infarction cases", "result": "no additional patients"}, {"measurement": "drop of left ventricular ejection fraction, one patient", "setting": "[2]; echocardiogram performed outside the study", "result": "from 65 to 20–25%"}, {"measurement": "effects on heart rate, PR interval, or QRS duration", "setting": "[2]; studied doses", "result": "no clinically relevant effects"}, {"measurement": "proarrhythmic potential", "setting": "[2]; therapeutic doses", "result": "no indication that SRA737 is proarrhythmic"}, {"measurement": "minimally effective concentration to inhibit Chk1", "setting": "Chk1", "result": "100 nM and 37.9 ng/mL"}, {"measurement": "disease control rate (at least four cycles with at least stable disease as best response)", "setting": "[3]; HGSOC, 11/26", "result": 42.3, "unit": "%"}, {"measurement": "disease control rate (at least four cycles with at least stable disease as best response)", "setting": "[3]; HNSCC, 3/4", "result": 75.0, "unit": "%"}, {"measurement": "disease control rate (at least four cycles with at least stable disease as best response)", "setting": "[3]; NSCLC, 3/8", "result": 37.5, "unit": "%"}, {"measurement": "patients with reduction or no increase in sum of RECIST target tumour diameters and/or stable disease for 4 or more cycles", "setting": "[3]; in vivo", "result": 29, "unit": "patients"}, {"measurement": "reductions in tumour size", "setting": "[3]; in vivo", "result": "up to 29 % reduction"}, {"measurement": "disease control rate (at least four cycles with at least stable disease as best response)", "setting": "[3]; mCRPC, 8/13", "result": 61.5, "unit": "%"}, {"measurement": "RECIST responses (complete or partial)", "setting": "[3]; monotherapy, expansion cohort patients with predefined genetic mutations", "result": "no complete or partial RECIST responses; also recorded: no partial or complete RECIST responses"}, {"measurement": "pH-dependent solubility", "setting": "[4]", "result": "minimal to moderate pH-dependent solubility"}]}
